From patent US7989464B2, “mGluR1 antagonists as therapeutic agents” (Schering Corporation, priority 2004, dated 2011)
Where two headings read alike, the source gives them in different places.

Target: T1, hmGluR1 receptor (Homo sapiens, UniProt Q13255)
T1 construct: expressed in transfected cells
Assay: IC50 determination: intracellular calcium mobilization (FLIPR) upon Quisqualate stimulation in CHO cells stably expressing hmGluR1
Format: cell-based
Settings: against Quisqualate 1 μM (EC80)
Protocol: A CHO cell line stably expressing hmGluR1 receptor was established. One day prior to assay, cells were split in growth media at concentration of 50,000 cells/well in a volume of 100 μl and seeded into black clear-bottom 96-well plates. After two to six hours, when cells were well attached to the plate, growth medium was replaced with assay medium (100 μL) consisting of DMEM high glucose, supplemented with GPT (1 U/mL) and Sodium pyruvate, 1 mM. Following overnight incubation, medium was discarded and cells were loaded for 2 h with dye from the Calcium 3 Assay Reagent Kit (Molecular Devices, # R8033), prepared according to manufacturers' instructions. […] Test compounds were added 10 minutes before Quisqualate.

[1] = FLIPR calcium mobilization, read-out: IC50 Class
[2] = class symbols, read-out: mGIuR 1 IC50
[3] = FLIPR calcium mobilization, read-out: mGluR1 IC50

T1 sequence (Q13255 19-1194): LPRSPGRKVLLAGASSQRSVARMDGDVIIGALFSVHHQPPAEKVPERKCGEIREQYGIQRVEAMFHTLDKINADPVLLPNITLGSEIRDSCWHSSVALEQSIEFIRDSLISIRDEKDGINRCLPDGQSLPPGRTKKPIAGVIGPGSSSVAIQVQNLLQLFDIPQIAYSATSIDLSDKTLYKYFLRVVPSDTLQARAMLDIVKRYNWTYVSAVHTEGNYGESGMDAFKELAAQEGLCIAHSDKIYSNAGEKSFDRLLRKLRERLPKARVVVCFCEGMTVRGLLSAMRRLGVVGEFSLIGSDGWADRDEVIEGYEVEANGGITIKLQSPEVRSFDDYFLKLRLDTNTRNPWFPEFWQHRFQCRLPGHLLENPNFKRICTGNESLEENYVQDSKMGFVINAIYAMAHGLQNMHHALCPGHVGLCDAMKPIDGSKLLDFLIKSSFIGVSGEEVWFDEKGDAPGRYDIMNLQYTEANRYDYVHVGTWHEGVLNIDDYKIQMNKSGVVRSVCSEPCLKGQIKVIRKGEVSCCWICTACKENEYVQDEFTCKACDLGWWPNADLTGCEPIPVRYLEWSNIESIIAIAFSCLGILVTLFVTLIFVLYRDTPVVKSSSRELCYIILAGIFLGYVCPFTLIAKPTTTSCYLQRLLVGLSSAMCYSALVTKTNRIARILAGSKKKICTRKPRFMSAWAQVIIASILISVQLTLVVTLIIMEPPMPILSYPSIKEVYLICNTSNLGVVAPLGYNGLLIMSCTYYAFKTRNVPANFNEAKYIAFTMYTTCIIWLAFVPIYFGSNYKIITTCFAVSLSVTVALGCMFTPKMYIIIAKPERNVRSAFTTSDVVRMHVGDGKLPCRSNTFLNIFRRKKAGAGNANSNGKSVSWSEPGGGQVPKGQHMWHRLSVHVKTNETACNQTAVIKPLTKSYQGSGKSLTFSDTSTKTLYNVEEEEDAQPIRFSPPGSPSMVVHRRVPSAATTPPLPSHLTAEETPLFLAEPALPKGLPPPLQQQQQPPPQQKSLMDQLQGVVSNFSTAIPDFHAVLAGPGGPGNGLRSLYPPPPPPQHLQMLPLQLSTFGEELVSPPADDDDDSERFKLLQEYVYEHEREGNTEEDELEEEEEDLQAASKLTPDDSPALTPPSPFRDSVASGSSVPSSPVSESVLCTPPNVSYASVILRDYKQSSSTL

Row | SMILES | IC50 [1] [µM] | IC50 [2] [µM] | further results
1 | COc1ccc(-n2cnc3c(sc4nccc(N(C)C)c43)c2=O)cc1 [7BG] |  | < 0.05 | 
2 | CN(C)c1ccnc2sc3c(=O)n(CCN4CCOCC4)cnc3c12 [15N] |  | > 1 | 
3 | CCN(CC)C(=O)N1CCN(c2ccnc3sc4c(=O)n(C5CCCCC5)cnc4c23)CC1 [compound 64] |  | > 1 | 
4 | CNc1c(Cl)cnc2sc3c(=O)n(-c4ccc(Cl)cc4)cnc3c12 [compound 200] | < 0.05 |  | 
5 | CN(C)c1cc(C#N)nc2sc3c(=O)n(C4CCCCC4)cnc3c12 [compound 84] |  | 0.05 to 0.15 | 
6 | C#CCNc1ccnc2sc3c(=O)n(-c4ccc(OC)cc4)cnc3c12 [28DQ] | < 0.05 |  | 
7 | CNc1c(C#N)cnc2sc3c(=O)n(-c4ccc(Cl)cc4)cnc3c12 [compound 189] | 0.05 to 0.15 |  | 
8 | CC(=O)c1c(C)nc2sc3c(=O)n(-c4ccccc4)cnc3c2c1-c1ccc(Cl)cc1 [P-9] |  | 0.15 to 1 | 
9 | C=CCNc1ccnc2sc3c(=O)n(-c4ccc(OC)c(F)c4)cnc3c12 [28DT] | < 0.05 |  | 
10 | O=c1c2sc3nccc(NCc4ccccc4)c3c2ncn1C1CCCCC1 [72E] |  | > 1 | 
11 | CN(C)c1c(C(N)=O)cnc2sc3c(=O)n(C4CCCCC4)cnc3c12 [compound 49] |  | > 1 | 
12 | CN(C)c1ccnc2sc3c(=O)n(C4CCCc5ccccc54)cnc3c12 (stereo not shown) [7AI] |  | 0.15 to 1 | 
13 | CCNc1ccnc2sc3c(=O)n(-c4ccncc4)cnc3c12 [28EG] | 0.15 to 1 |  | 
14 | O=c1c2sc3nccc(NC4CC4)c3c2ncn1-c1ccc2occc2c1 [28BI] | < 0.05 |  | 
15 | COc1ccc(-n2cnc3c(sc4nccc(NCC(F)(F)F)c43)c2=O)c(C)c1 [28BP] | 0.15 to 1 |  | 
16 | COc1ccc(-n2cnc3c(sc4nccc(N)c43)c2=O)cc1 [72C] |  | < 0.05 | 

Row | SMILES | IC50 [1] [µM] | IC50 [2] [µM] | further results
17 | CN(N)c1ccnc2sc3c(=O)n(-c4ccc(Cl)cc4)cnc3c12 [28DM] | > 1 |  | 
18 | O=c1c2sc3nccc(C4CCCC4)c3c2ncn1C1CCCCC1 [29B] |  | > 1 | 
19 | C#CC(CC)(CC)Nc1ccnc2sc3c(=O)n(-c4ccc(C)cc4)cnc3c12 [28EU] | 0.15 to 1 |  | 
20 | CN(C)c1ccnc2sc3c(=O)n(-c4ccc5c(c4)oc(=O)n5C)cnc3c12 [7AR] |  | > 1 | 
21 | COc1ccc(-n2cnc3c(sc4ncc(C#N)c(N)c43)c2=O)cc1 [compound 194] | 0.15 to 1 |  | 
22 | Cc1ccc(-n2cnc3c(sc4nccc(N(C)C)c43)c2=O)cc1F [7DH] |  | < 0.05 | IC50 [3]: 0.00202 µM
23 | CCN(C)c1ccnc2sc3c(=O)n(-c4ccc(OC)cc4)cnc3c12 [7CE] |  | < 0.05 | 
24 | C=Cc1ccnc2sc3c(=O)n(-c4ccc(Cl)cc4)cnc3c12 [29E] | < 0.05 |  | 
25 | CN(C)c1ccnc2sc3c(=O)n(-c4ccc5c(c4)OCCO5)cnc3c12 [7AC] |  | < 0.05 | IC50 [3]: 0.00184 µM
26 | CN(C)c1ccnc2sc3c(=O)[nH]cnc3c12 [7E] |  | > 1 | 
27 | COc1ccc(Nc2ccnc3sc4c(=O)n(-c5ccc(OC)cc5)cnc4c23)cc1 [28FP] | 0.15 to 1 |  | 
28 | COCCCNc1ccnc2sc3c(=O)n(-c4ccc(Br)cc4)cnc3c12 [28GR] | < 0.05 |  | 
29 | O=c1c2sc3nccc(NCCc4ccccc4)c3c2ncn1C1CCCCC1 [72F] |  | > 1 | 
30 | Cc1cc(N(C)C)c2c(n1)sc1c(=O)n(-c3cccnc3)cnc12 [7DD] |  | 0.15 to 1 | 
31 | COc1ccnc2sc3c(=O)n(-c4ccc(Cl)cc4C)cnc3c12 [28FU] | > 1 |  | 

Second part, led by results:

Row | IC50 [1] [µM] | IC50 [2] [µM] | SMILES | further results
32 | < 0.05 |  | C=CCNc1ncnc2sc3c(=O)n(-c4ccc(OC)cc4)cnc3c12 [95GP] | 
33 |  | < 0.05 | CCNc1ccnc2sc3c(=O)n(-c4ccc(C)cc4)cnc3c12 [131D] | 
34 | 0.15 to 1 |  | O=c1c2sc3ncnc(NCC4CC4)c3c2ncn1-c1ccc(Br)cc1 [95DS] | 
35 | 0.05 to 0.15 |  | CN(C)c1ccnc2sc3c(=O)n(-c4ccc(C5CC5)cc4F)cnc3c12 [137F] | 
36 | > 1 |  | COCCNc1ncnc2sc3c(=O)n(CCOC)cnc3c12 [95DX] | 
37 | 0.05 to 0.15 |  | Cc1ccc(-n2cnc3c(sc4nccc(NC5CC5)c43)c2=O)c(F)c1 [131M] | 
38 | 0.15 to 1 |  | O=c1c2sc3ncnc(NC4CCC4)c3c2ncn1-c1ccc(F)cc1 [95DF] | 
39 | > 1 |  | COc1ccnc2sc3c(=O)n(-c4ccc5c(c4)OCCO5)cnc3c12 [161B] | 
40 | < 0.05 |  | Cc1ccc(-n2cnc3c(sc4nc(C)nc(N)c43)c2=O)cc1 [95ET] | 
41 | 0.05 to 0.15 |  | C#CCNc1ncnc2sc3c(=O)n(-c4ccc5c(c4)OCO5)cnc3c12 [95EO] | 
42 | 0.15 to 1 |  | O=c1c2sc3ncnc(NC4CCC4)c3c2ncn1-c1ccc(Cl)cc1 [95DD] | 
43 |  | < 0.05 | C#CCNc1ccnc2sc3c(=O)n(-c4ccc(C)cc4)c(C)nc3c12 [113K] | 
44 | > 1 |  | CN(C)c1cccc2sc3c(=O)n(-c4cccc(Cl)c4Cl)cnc3c12 [103I] | 
45 | 0.15 to 1 |  | COc1ccc(-n2cnc3c(sc4ncnc(NCc5ccco5)c43)c2=O)cc1 [95GQ] | 
46 | < 0.05 |  | CN(C)c1ncnc2sc3c(=O)n(-c4ccc(Br)cc4F)cnc3c12 [95AR] | 
47 | > 1 |  | COCCn1cnc2c(sc3ncnc(NC4CC4)c32)c1=O [95EC] | 
